Assay results taken from article PMC12354831 (Cell Death Discovery, 2025).

Assays:
[1] = biological target: T1, GLUT3 (Homo sapiens, UniProt P11169); assay: 2-NBDG glucose uptake competition assay in GLUT3-OE vs vector control U251-MG cells; assay type: cell-based; settings: for reduction in 2-NBDG uptake: GLUT3 OE U251-MG cells, 100 μM 2-NBDG
T1 construct: expressed in transfected cells
T1 sequence (P11169 1-496): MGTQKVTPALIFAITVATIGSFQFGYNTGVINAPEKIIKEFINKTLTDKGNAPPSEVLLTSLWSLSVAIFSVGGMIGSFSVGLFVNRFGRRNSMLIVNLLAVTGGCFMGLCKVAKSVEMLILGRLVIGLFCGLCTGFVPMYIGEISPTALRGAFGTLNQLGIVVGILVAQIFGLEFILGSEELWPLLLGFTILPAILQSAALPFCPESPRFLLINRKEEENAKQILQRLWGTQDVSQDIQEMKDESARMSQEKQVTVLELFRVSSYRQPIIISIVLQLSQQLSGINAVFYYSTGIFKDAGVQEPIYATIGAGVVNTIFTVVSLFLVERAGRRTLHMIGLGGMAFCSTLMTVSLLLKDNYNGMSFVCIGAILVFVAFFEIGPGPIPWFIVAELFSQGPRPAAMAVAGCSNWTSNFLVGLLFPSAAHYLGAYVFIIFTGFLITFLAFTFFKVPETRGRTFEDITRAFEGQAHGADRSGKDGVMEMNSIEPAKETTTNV
Protocol: GBM cells were seeded into 96-well plates at a density of 4 × 10^4 cells per well and allowed to adhere for 24 h. After 6–12 h, the culture medium (containing 10% fetal bovine serum, FBS) was removed, and the cells were incubated in 100 µL of glucose-free DMEM medium for 1 h at 37 °C in a humidified atmosphere containing 5% CO2. The glucose-free medium was then replaced with 100 µL of DMEM containing 100 µM 2-NBDG, and the cells were incubated for an additional 30 min at 37 °C. Following incubation, the cells were washed three times with cold PBS to remove unincorporated 2-NBDG. The fluorescence intensity was immediately measured using a Synergy™ H1 automatic microplate reader with excitation and emission wavelengths set at 485 nm and 528 nm, respectively.
After 30 min of incubation at 37 °C, the cells were washed three times with cold PBS, and the fluorescence intensity was measured as described above.

[2] = tested on: U87-MG cells; assay: CCK-8 IC50 determination in U87-MG cells with or without GLUT3 KD; assay type: cell-based, human; settings: GLUT3 KD vs control, CCK-8, 24 h drug treatment
Protocol: (§1) The GBM cell line was seeded into a 96-well plate at a density of 5 × 10^3 cells per well and incubated at 37 °C in a humidified atmosphere containing 5% CO2 overnight. […] Following 24 h of drug treatment, 10 µL of CCK-8 reagent was added to each well, and the cells were incubated for an additional 1 h at 37 °C. The absorbance was then measured at 450 nm using a microplate reader.
(§2) In this study, the experimental groups were designated as Group A (cells treated with temozolomide (TMZ) or capecitabine (CAPE)), the control group as Group B (cells treated with DMSO), and the blank control group as Group C ([…]). The cell viability rate was calculated using the formula: (A-C)/(B-C) × 100%, where A, B, and C represent the absorbance values of Group A, Group B, and Group C, respectively.

[3] = tested on: U251-MG cell-derived xenograft; assay: TMZ and CAPE levels in nude mouse xenograft tumors by LC-MS/MS; assay type: in vivo, nude mice (BALB/c-nu); settings: nude mice, TMZ 40 mg/kg or CAPE 20 mg/kg every 3 days; for drug level in GLUT3-overexpressing tumors relative to controls: fasting groups (24 h fast before each dose); for drug concentration in GLUT3 overexpressing tumors relative to controls: regular diet
Protocol: TMZ and CAPE levels in tumors from nude mice were measured using LC-MS/MS. Tumor tissues were excised from the mice and homogenized. The homogenized samples were then centrifuged at maximum speed (~14,000 × g) at 4 °C for 10 min. The supernatant was collected and transferred to a new centrifuge tube.
For LC-MS/MS analysis, the supernatants were diluted to an appropriate concentration. A total of 100 µL of each sample was mixed with 100 µL of acetonitrile (or standard reagent) and 300 µL of internal standard solution (^2H3-TMZ 100 ng/mL and ^2H11-CAPE 20 ng/mL dissolved in acetonitrile). […] To ensure the stability and repeatability of the instrument analysis, QC samples were prepared and analyzed alongside the experimental samples. QC samples were inserted regularly and analyzed every 6–12 samples. Each experiment was repeated 6 times.
LC-MS/MS analyses were performed using an HPLC system (Shimadzu, LC-20A) coupled to a SCIEX Triple Quad™ 7500 mass spectrometer. The samples were separated on a Syncronis HILIC column (2.1 × 100 mm, 1.7 µm; Thermo Scientific). The mobile phases consisted of: Mobile phase A (0.1% formic acid and 2.5 mM ammonium acetate in water) and Mobile phase B (0.1% formic acid and 2.5 mM ammonium acetate in acetonitrile). Gradient elution was employed, with the flow rates and gradient conditions detailed in Table S4.
The mass spectrometry conditions were as follows: Ion source: electrospray ionization (ESI); Detection mode: positive ion mode; Scanning method: multiple reaction monitoring (MRM); Spray voltage (IS): 5500 V; Ion source temperature (TEM): 555 °C; Gas curtain pressure (CUR): 25 psi; Collision activation dissociation (CAD): MEDIUM; Nebulizer gas pressure (GS1): 55 psi; Auxiliary gas pressure (GS2): 55 psi.
All animal studies were approved and supervised by the Ethics Committee for Animal Use and Care at Peking University. Nude mice (BALB/c-nu) were purchased and maintained as previously described. For the establishment of xenograft tumor models, 1 × 10^6 U251-MG cells (either negative vector control or overexpressing GLUT3) were injected into the bilateral axillary fossae of 4-week-old nude mice. After 7 days, when palpable tumors had formed, the mice were randomly divided into six experimental groups (n = 7 per group), and treatment was initiated immediately.

[4] = tested on: U251-MG cells; assay: CCK-8 IC50 determination in U251-MG cells with or without GLUT3 OE; assay type: cell-based, human; settings: GLUT3 OE vs control, CCK-8, 24 h drug treatment
Protocol: as §1, §2

Structure (SMILES)	reduction in 2-NBDG uptake ([1]; 1 μM drug)	reduction in 2-NBDG uptake ([1]; 10 μM drug)	reduction in 2-NBDG uptake ([1]; 100 μM drug)	fold increase of IC50 on GLUT3 knockdown [2]	drug level in GLUT3-overexpressing tumors relative to controls [3]	drug concentration in GLUT3 overexpressing tumors relative to controls [3]	reduction of IC50 in GLUT3 overexpressing cells compared to control cells [4]	effect on glucose (2-NBDG) uptake in control cells ([1]; vector control U251-MG cells, until concentration reached 100 μM)
CCCCCOC(=O)Nc1nc(=O)n([C@@H]2O[C@H](C)[C@@H](O)[C@H]2O)cc1F [CAPE, capecitabine]	39.4%	51.5%	69.3%	56.5 fold	3.54 fold	1.52 fold	94.4%	
Cn1nnc2c(C(N)=O)ncn2c1=O [TMZ]	36.8%	47.2%	70.1%	10.6 fold	1.34 fold	~ 1.95 fold	97.7%	minimally affected
